Assay results from patent US12570673B2, “c-Myc protein inhibitor, and preparation method therefor and use thereof” (SUZHOU KINTOR PHARMACEUTICALS, INC., priority 2019, dated 2026).

What follows are compounds tested on HL60 cells (assay: Anti-cancer activity test, MTT, HL60 cells). Details: Homo sapiens, HL-60, culturing for 72 hours.
Assay type: cell-based
Description: Cell culture medium: Roswell medium RPMI-1640 (+L-glutamine) was added with 10% fetal bovine serum, with 100 units penicillin and 100 μg streptomycin per ml.
Cell culture conditions: 5% CO2, 95% humidity, cultured at 37° C. constant temperature.
2. Cell Inoculation, Drugs Dosing and Culture.
Logarithmic growth phase HL-60, human chronic myeloid leukemia cells (K562), human esophageal squamous cell carcinoma cells (KYSE510), human large cell lung cancer cells (H460) were inoculated into 96-well cell culture plates, 2×10^4 cells per well. Different concentrations of active compounds (dissolved in dimethyl sulfoxide (DMSO) stock solution) were added, so that the final concentration of DMSO was 0.2%, and the control group was DMSO. Each group was repeated three times.
After culturing for 72 hours, 20 µL of thiazolyl blue (MTT) (5 mg/ml, ready for use, dissolved in 1×PBS for cell culture) was added to each well, and incubated at 37° C. for 3 hours.
The 96-well cell culture plates were centrifuged at 1000 rpm for 10 minutes. The supernatant was discarded; 200 μL of DMSO was added to each well and the plate was shaken for 5 minutes.
The absorbance of each well was detected at 570 nm wavelength with a microplate reader, and the IC50 of the compounds was calculated.

| IC50 | SMILES |
| --- | --- |
| < 100 nM | CC(C)C[C@H](NC(=O)[C@H](CC(=O)NC(c1ccccc1)(c1ccccc1)c1ccccc1)NC(=O)OCC1c2ccccc2-c2ccccc21)B1O[C@@H]2C[C@@H]3C[C@@H](C3(C)C)[C@]2(C)O1 [Compound A1] |
| < 100 nM | CC(C)C[C@H](NC(=O)[C@H](Cc1cn(C(=O)OC(C)(C)C)c2ccccc12)NC(=O)OCC1c2ccccc2-c2ccccc21)B1O[C@@H]2C[C@@H]3C[C@@H](C3(C)C)[C@]2(C)O1 [Compound A8] |
| 100 to 500 nM | CC(C)C[C@H](NC(=O)[C@@H](CC(=O)NC(c1ccccc1)(c1ccccc1)c1ccccc1)NC(=O)OCC1c2ccccc2-c2ccccc21)B1O[C@@H]2C[C@@H]3C[C@@H](C3(C)C)[C@]2(C)O1 [Compound A9] |
| 100 to 500 nM | CC(C)C[C@H](NC(=O)[C@@H](NC(=O)OCC1c2ccccc2-c2ccccc21)[C@@H](C)O)B1O[C@@H]2C[C@@H]3C[C@@H](C3(C)C)[C@]2(C)O1 [Compound A11] |
| < 100 nM | CC(C)C[C@H](NC(=O)[C@H](C)NC(=O)OCC1c2ccccc2-c2ccccc21)B1O[C@@H]2C[C@@H]3C[C@@H](C3(C)C)[C@]2(C)O1 [Compound A12] |
| < 100 nM | COC(=O)CC[C@H](NC(=O)OCC1c2ccccc2-c2ccccc21)C(=O)N[C@@H](CC(C)C)B1O[C@@H]2C[C@@H]3C[C@@H](C3(C)C)[C@]2(C)O1 [Compound A14] |
| < 100 nM | CC(C)C[C@H](NC(=O)[C@H](Cc1ccccc1)NC(=O)OCC1c2ccccc2-c2ccccc21)B1O[C@@H]2C[C@@H]3C[C@@H](C3(C)C)[C@]2(C)O1 [Compound A15] |
| < 100 nM | COC(=O)C[C@H](NC(=O)OCC1c2ccccc2-c2ccccc21)C(=O)N[C@@H](CC(C)C)B1O[C@@H]2C[C@@H]3C[C@@H](C3(C)C)[C@]2(C)O1 [Compound A16] |
| < 100 nM | CC(C)C[C@H](NC(=O)[C@H](CCc1ccccc1)NC(=O)OCC1c2ccccc2-c2ccccc21)B1O[C@@H]2C[C@@H]3C[C@@H](C3(C)C)[C@]2(C)O1 [Compound A17] |
| < 100 nM | CC(C)C[C@H](NC(=O)[C@H](Cc1c[nH]c2ccccc12)NC(=O)OCC1c2ccccc2-c2ccccc21)B1O[C@@H]2C[C@@H]3C[C@@H](C3(C)C)[C@]2(C)O1 [Compound A18] |
| 100 to 500 nM | CC(C)C[C@H](NC(=O)[C@H](CC(=O)NC(c1ccccc1)(c1ccccc1)c1ccccc1)NC(=O)OC(C)(C)C)B1O[C@@H]2C[C@@H]3C[C@@H](C3(C)C)[C@]2(C)O1 [Compound A19] |
| < 100 nM | CC(C)C[C@H](NC(=O)[C@H](CC(=O)NC(c1ccccc1)(c1ccccc1)c1ccccc1)NC(=O)OCc1ccccc1)B1O[C@@H]2C[C@@H]3C[C@@H](C3(C)C)[C@]2(C)O1 [Compound A20] |
| < 100 nM | CC(C)C[C@H](NC(=O)[C@H](Cc1c[nH]c2ccccc12)NC(=O)OCc1ccccc1)B1O[C@@H]2C[C@@H]3C[C@@H](C3(C)C)[C@]2(C)O1 [Compound A21] |
| 100 to 500 nM | C[C@H](NC(=O)[C@H](CCCCNC(=O)OC(C)(C)C)NC(=O)OCC1c2ccccc2-c2ccccc21)B1O[C@@H]2C[C@@H]3C[C@@H](C3(C)C)[C@]2(C)O1 [Compound A23] |
| < 100 nM | CC(C)C[C@H](NC(=O)[C@H](CC(C)C)NC(=O)CC1c2ccccc2-c2ccccc21)B1O[C@@H]2C[C@@H]3C[C@@H](C3(C)C)[C@]2(C)O1 [Compound A24] |
| < 100 nM | CC(C)C[C@H](NC(=O)[C@H](Cc1c[nH]c2ccccc12)NC(=O)CC12CC3CC(CC(C3)C1)C2)B1O[C@@H]2C[C@@H]3C[C@@H](C3(C)C)[C@]2(C)O1 [Compound A25] |
| 500 to 2000 nM | CC(C)C[C@H](NC(=O)[C@H](Cc1c[nH]c2ccccc12)NC(=O)C12CC3CC(CC(C3)C1)C2)B1O[C@@H]2C[C@@H]3C[C@@H](C3(C)C)[C@]2(C)O1 [Compound A26] |
| < 100 nM | CC(C)C[C@H](NC(=O)[C@H](Cc1cn(C(=O)OC(C)(C)C)c2ccccc12)NC(=O)C1CC2C=CC1C2)B1O[C@@H]2C[C@@H]3C[C@@H](C3(C)C)[C@]2(C)O1 (some centres unmarked) [Compound A27] |
| 500 to 2000 nM | CC(C)C[C@H](NC(=O)[C@H](Cc1cn(C(=O)OC(C)(C)C)c2ccccc12)NC(=O)C12CC3CC(C1)C(=O)C(C3)C2)B1O[C@@H]2C[C@@H]3C[C@@H](C3(C)C)[C@]2(C)O1 [Compound A28] |
| < 100 nM | CC(C)C[C@H](NC(=O)[C@H](Cc1c[nH]c2ccccc12)NC(=O)CC1CCCCC1)B1O[C@@H]2C[C@@H]3C[C@@H](C3(C)C)[C@]2(C)O1 [Compound A29] |
| < 100 nM | CC(C)C[C@H](NC(=O)[C@H](Cc1c[nH]c2ccccc12)NC(=O)CC1CCCC1)B1O[C@@H]2C[C@@H]3C[C@@H](C3(C)C)[C@]2(C)O1 [Compound A30] |
| < 100 nM | CC(C)C[C@H](NC(=O)[C@H](Cc1c[nH]c2ccccc12)NC(=O)CC1CC1)B1O[C@@H]2C[C@@H]3C[C@@H](C3(C)C)[C@]2(C)O1 [Compound A31] |

| IC50 | SMILES |
| --- | --- |
| < 100 nM | CC(C)C[C@H](NC(=O)[C@H](Cc1c[nH]c2ccccc12)NS(=O)(=O)Cc1ccccc1)B1O[C@@H]2C[C@@H]3C[C@@H](C3(C)C)[C@]2(C)O1 [Compound A32] |
| 500 to 2000 nM | CC(C)C[C@H](NC(=O)[C@H](Cc1c[nH]c2ccccc12)NC(=O)c1ccncc1)B1O[C@@H]2C[C@@H]3C[C@@H](C3(C)C)[C@]2(C)O1 [Compound A33] |
| 100 to 500 nM | CC(C)C[C@H](NC(=O)[C@H](Cc1c[nH]c2ccccc12)NC(=O)c1nc2ccccc2s1)B1O[C@@H]2C[C@@H]3C[C@@H](C3(C)C)[C@]2(C)O1 [Compound A34] |
| 100 to 500 nM | CC(C)C[C@H](NC(=O)[C@H](Cc1c[nH]c2ccccc12)NC(=O)c1ccc2ncccc2c1)B1O[C@@H]2C[C@@H]3C[C@@H](C3(C)C)[C@]2(C)O1 [Compound A35] |
| < 100 nM | CC(C)C[C@H](NC(=O)[C@H](Cc1c[nH]c2ccccc12)NC(=O)c1cnc2ccccc2c1)B1O[C@@H]2C[C@@H]3C[C@@H](C3(C)C)[C@]2(C)O1 [Compound A36] |
| < 100 nM | CC(C)C[C@H](NC(=O)[C@H](Cc1c[nH]c2ccccc12)NC(=O)c1ccc2ccccc2c1)B1O[C@@H]2C[C@@H]3C[C@@H](C3(C)C)[C@]2(C)O1 [Compound A37] |
| 100 to 500 nM | CC(C)C[C@H](NC(=O)[C@H](CC(N)=O)NC(=O)CC1c2ccccc2-c2ccccc21)B1O[C@@H]2C[C@@H]3C[C@@H](C3(C)C)[C@]2(C)O1 [Compound A38] |
| 500 to 2000 nM | CC(C)C[C@H](NC(=O)[C@H](CC(C)C)NC(=O)Cn1c2ccccc2c2ccncc21)B1O[C@@H]2C[C@@H]3C[C@@H](C3(C)C)[C@]2(C)O1 [Compound A39] |
| 500 to 2000 nM | CC(C)C[C@H](NC(=O)[C@H](CC(C)C)NC(=O)Cn1c2ccc(Br)cc2c2cc(Br)ccc21)B1O[C@@H]2C[C@@H]3C[C@@H](C3(C)C)[C@]2(C)O1 [Compound A40] |
| 500 to 2000 nM | CC(C)C[C@H](NC(=O)[C@H](CC(C)C)NC(=O)Cn1c2ccccc2c(=O)c2ccccc21)B1O[C@@H]2C[C@@H]3C[C@@H](C3(C)C)[C@]2(C)O1 [Compound A41] |
| < 100 nM | CC(C)C[C@H](NC(=O)[C@H](CC(C)C)NC(=O)NC1c2ccccc2-c2ccccc21)B1O[C@@H]2C[C@@H]3C[C@@H](C3(C)C)[C@]2(C)O1 [Compound A42] |
| < 100 nM | CC(C)C[C@H](NC(=O)[C@H](CC(C)C)NC(=O)NCC1c2ccccc2-c2ccccc21)B1O[C@@H]2C[C@@H]3C[C@@H](C3(C)C)[C@]2(C)O1 [Compound A43] |
| < 100 nM | CC(C)C[C@H](NC(=O)[C@H](Cc1c[nH]c2ccccc12)NC(=O)NC1CCCC1)B1O[C@@H]2C[C@@H]3C[C@@H](C3(C)C)[C@]2(C)O1 [Compound A44] |
| < 100 nM | CC(C)C[C@H](NC(=O)[C@H](Cc1c[nH]c2ccccc12)NC(=O)OC1CCCC1)B1O[C@@H]2C[C@@H]3C[C@@H](C3(C)C)[C@]2(C)O1 [Compound A45] |
| 100 to 500 nM | CC(C)C[C@H](NC(=O)[C@H](Cc1c[nH]c2ccccc12)NCc1ccccc1)B1O[C@@H]2C[C@@H]3C[C@@H](C3(C)C)[C@]2(C)O1 [Compound A46] |
| < 100 nM | COC(=O)C[C@H](NC(=O)CC1c2ccccc2-c2ccccc21)C(=O)N[C@@H](CC(C)C)B1O[C@@H]2C[C@@H]3C[C@@H](C3(C)C)[C@]2(C)O1 [Compound A47] |
| < 100 nM | CNC(=O)C[C@H](NC(=O)CC1c2ccccc2-c2ccccc21)C(=O)N[C@@H](CC(C)C)B1O[C@@H]2C[C@@H]3C[C@@H](C3(C)C)[C@]2(C)O1 [Compound A48] |
| 2000 to 10000 nM | CC(C)C[C@H](NC(=O)OCC1c2ccccc2-c2ccccc21)C(=O)N1CCC[C@H]1B1O[C@@H]2C[C@@H]3C[C@@H](C3(C)C)[C@]2(C)O1 [Compound A49] |
| 2000 to 10000 nM | CC(C)C[C@H](NC(=O)[C@H](CC(C)C)N(C)C(=O)OCC1c2ccccc2-c2ccccc21)B1O[C@@H]2C[C@@H]3C[C@@H](C3(C)C)[C@]2(C)O1 [Compound A50] |
| < 100 nM | CC(C)C[C@H](NC(=O)CNC(=O)OCC1c2ccccc2-c2ccccc21)B1O[C@@H]2C[C@@H]3C[C@@H](C3(C)C)[C@]2(C)O1 [Compound A51] |
| < 100 nM | COc1ccc2cc(C(=O)N[C@@H](Cc3c[nH]c4ccccc34)C(=O)N[C@@H](CC(C)C)B3O[C@@H]4C[C@@H]5C[C@@H](C5(C)C)[C@]4(C)O3)ccc2c1 [Compound A52] |
| 2000 to 10000 nM | CC(C)C[C@H](NC(=O)[C@H](C)NC(=O)c1ccc2c(c1)C(=O)N(C1CCC(=O)NC1=O)C2=O)B1O[C@@H]2C[C@@H]3C[C@@H](C3(C)C)[C@]2(C)O1 (some centres unmarked) [Compound A53] |
